Source: patent publication EP3319638B1, “CINEOL-CONTAINING COMPOSITION FOR THE TREATMENT OF TUMOURS AND/OR CANCERS” (Maria Clementine Martin Klosterfrau Vertriebsgesellschaft …, priority 2015, dated 2017)
Entries after “also recorded” stand apart in the source; their conditions may differ.

Tests used:
[1] = test system: phosphoryliertem GSK-3α/β (Serin-9/-21); assay: Western blot: phosphorylation level of GSK-3α/β at Ser-9/-21 in HNSCC cell lines; type: cell-based, human; settings: 100 µM, HNSCC cell lines (Fig. 1B)
Procedure: (§1) Die im Rahmen der vorliegenden Erfindung untersuchten adhärenten humanen Kopf-Hals-Plattenepithel-Karzinom-Zelllinien (UT-SCC16A, UT-SCC-16B, UT-SCC-60A und UT-SCC-60B) werden in "Dulbecco's Modifiziertem Eagle's Medium" (DMEM, 4,5 g/l D-Glucose und L-Glutamin), welches mit 10 % fötalem Rinderserum (FBS) (beide Life Technologies, Carlsbad, CA, USA), 1 % Natriumpyruvat (PAN-Biotech, Aidenbach, Deutschland) und 1 % Antibiotika (10.000 U/ml Penicillin, 10.000 µg/ml Streptomycin) (Biochrom, Berlin, Deutschland) supplementiert ist, bei 37 °C unter 5 % CO2 und 95 % LuftAtmosphäre gelagert.
(§2) Anti-Phospho-GSK-3α/β-Antikörper (Serin-21/-9) (#9331) und Anti-GAPDH-Antikörper (#2118) werden über Cell Signaling Technology (Danvers, MA, USA) bezogen. Beide Antikörper werden in einer […]-Verdünnung in TBS mit 3 % BSA (PAA Laboraties, Pasching, Österreich) verwendet. Anti-Phospho-GSK-3a/β-Antikörper (Y279/Y216) (#ab6847) werden von Abcam (Cambridge, UK) erhalten und in einer 1 : 1.000-Verdünnung in TBS mit 3 % BSA verwendet. Der gegen aktives-β-Catenin gerichtete Antikörper (#05-665) wird über Merck Milipore (Billerica, MA, USA) bezogen und in einer Verdünnung von 1 : 2.000 in TBS und 3 % Milchpulver (Carl Roth, Karlsruhe, Deutschland) verwendet. […]

[2] = test system: Fibroblastenzelllinie; assay: MTT assay: vitality and proliferation of a fibroblast cell line, 250 h culture; type: cell-based
Text: (§3) Die Zellproliferation wird mittels eines quantitativen kolorimetrischen 3-(4,5-Dimethylthiazol-2-yl)-2,5-diphenyltetrazoliumbromid-basierten (MTT) Zelltests bestimmt. Dieser Test bestimmt die Anzahl der lebensfähigen Zellen auf Basis der mitochondrialen Konversion von MTT.
(§4) Dazu werden 5.000 Zellen in jedes Well einer 96-Well-Platte verteilt. Nach 24 Stunden Kultivierung werden vier verschiedene Konzentrationen von 5-Fluoruracil oder Cisplatin zu den Kulturen hinzugefügt oder die Zellen werden mit drei Dosen bestrahlt. Nach 48 Stunden werden in jedes Well 10 µl MTT-Farbstoff (5 mg/ml) zugefügt. Nach zwei Stunden Inkubation mit MTT wurden die Kristalle gelöst und vorsichtig für 24 Stunden bei Raumtemperatur geschüttelt. Mithilfe eines Multi-Well-ELISA-Lesegeräts wird die Absorption der reduzierten Formazan-Produkte in Kontrolle und Proben-Wells bei einer Welle von 570 nm und 690 nm bestimmt. Alle Wachstumsproben des MTT-Tests werden in dreifacher Ausführung ausgeführt.
(§5) Es werden weiterführende Untersuchungen durchgeführt zur Analyse des Einflusses von Cineol auf die Vitalität und Proliferation verschiedener permanenter Zelllinien. Hierzu werden einerseits die zwei HNSCC-Zelllinien und des Weiteren eine Fibroblastenzelllinie verwendet. Diese werden über einen Zeitraum von 250 Stunden mit verschiedenen Cineol-Konzentrationen kultiviert (1 mM bis 10 mM) und die Vitalität der Zellen wird jeweils mittels eines MTT-Assays untersucht.

[3] = test system: aktivem β-Catenin; assay: Western blot of whole-cell protein: expression level of active β-catenin in HNSCC cell lines; type: cell-based, human; settings: 24 h incubation, 100 µM, versus medium control (Fig. 1A)
Procedure: as §1, §2

[4] = test system: HNSCC-Zellen; assay: MTT test: proliferation and viability of HNSCC cells, 288 h incubation; type: cell-based, human; settings: 700 µM, MTT (Fig. 5)
Text: as §3, §4
Dosisabhängige Inhibition der Proliferation von HNSCC durch 1,8-Cineol Um zu bestimmen, ob die Behandlung mit 1,8-Cineol zu einer Inhibition der zellulären Lebensfähigkeit von HNSCC führt, werden MTT-Tests durchgeführt. Zu diesem Zweck werden die Zellen für 288 Stunden in 300 µM bzw. 700 µM Cineol inkubiert.

[5] = test system: P-Akt (Threonin-308); assay: Western blot: Akt phosphorylation at Thr-308 in HNSCC cell lines; type: cell-based, human; settings: 100 µM, HNSCC cell lines (Fig. 3)
Procedure: as §1
(§6) Die Zellen werden zweimal in eiskaltem PBS gewaschen und anschließend in RIPA-Puffer (Cell Signaling Technology, Danvers, MA, USA) mit Aprotinin, Pepstatin A, Protease Inhibitor Cocktail und Phenylmethansulfonylfluorid (Sigma-Aldrich, St. Louis, MO, USA) für 1,5 Stunden lysiert. Durch Zentrifugation (13.000 rpm, 4 °C, 10 Minuten) werden Zelltrümmer entfernt. Die Proteinkonzentration wird mittels des Bradford-Tests mit einfach konzentriertem Quick StartTM Dye Reagent (Bio-Rad Laboratories, Hercules, CA, USA) bestimmt. Es wird vierfach konzentrierter SDS-Probenpuffer hinzugefügt, und die Proben werden für 5 Minuten bei 95 °C denaturiert. Äquivalente Proteinmengen (30 µg) werden mittels SDS-PAGE in einem 10 % Polyacrylamidgel aufgetrennt und mittels Immunoblot auf Nitrocellulosemembranen übertragen. […]

[6] = test system: Wnt11; assay: Western blot: Wnt11 protein expression in HNSCC cell lines; type: cell-based, human
Procedure: Die Zellen werden zweimal in eiskaltem PBS gewaschen und anschließend in RIPA-Puffer (Cell Signaling Technology, Danvers, MA, USA) mit Aprotinin, Pepstatin A, Protease Inhibitor Cocktail und Phenylmethansulfonylfluorid (Sigma-Aldrich, St. Louis, MO, USA) für 1,5 Stunden lysiert. Durch Zentrifugation (13.000 rpm, 4 °C, 10 Minuten) werden Zelltrümmer entfernt. Die Proteinkonzentration wird mittels des Bradford-Tests mit einfach konzentriertem Quick StartTM Dye Reagent (Bio-Rad Laboratories, Hercules, CA, USA) bestimmt. Es wird vierfach konzentrierter SDS-Probenpuffer hinzugefügt, und die Proben werden für 5 Minuten bei 95 °C denaturiert. Äquivalente Proteinmengen (30 µg) werden mittels SDS-PAGE in einem 10 % Polyacrylamidgel aufgetrennt und mittels Immunoblot auf Nitrocellulosemembranen übertragen. Für die Proteinextraktion aus Geweben werden die Gewebe zunächst in 500 µl RIPA-Puffer mit Protease-Inhibitoren unter Einsatz des TissueLyser LT (Qiagen, Hilden, Deutschland) homogenisiert, anschließend inkubiert und wie zuvor beschrieben zentrifugiert.
Die Membranen werden mit TBS, enthaltend 3 % BSA oder 3 % Milchpulver, für 1 Stunde bei Raumtemperatur geblockt und anschließend mit dem primären Antikörper über Nacht bei 4 °C inkubiert. Nach einem Waschschritt mit TBS werden die Membranen mit dem speziesspezifischen sekundären Antikörper für 1 Stunde bei Raumtemperatur inkubiert. Die Proteinbanden werden unter Einsatz von Amersham™ ECL™ Primer Western Blotting Detection Reagent (GE Healthcare, Chalfont St Giles, Buckinghamshire, UK) und Fusion-FX7 sowie der korrespondierenden Software Fusion Bio-1D V12.14 (Vilber-Lourmat, Eberhardzell, Deutschland) nach ausgiebigem Waschen visualisiert. Die Nitrozellulosemembranen werden über Nacht bei 4 °C mit einem GAPDH-Antikörper inkubiert, um die Beladung jeder Spur zu bestimmen. Die Membranen werden nochmals gewaschen und mit dem sekundären Antikörper und ECL Detektionsreagenz inkubiert. […]

[7] = test system: Akt; assay: Western blot: Akt expression in HNSCC cell lines; type: cell-based, human; settings: 100 µM, HNSCC cell lines (Fig. 3)
Procedure: as §1, §6

[8] = test system: GSK-3α/β (Tyrosin-279/-216); assay: Western blot: phospho-GSK-3α/β at Tyr-279/-216 in HNSCC cell lines; type: cell-based, human; settings: 100 µM, HNSCC cell lines (Fig. 1C)
Procedure: as §1, §2

[9] = test system: HNSCC-Zelllinien; assay: MTT assay: vitality and proliferation of HNSCC cell lines, 250 h culture; type: cell-based, human
Text: as §3, §4, §5

[10] = test system: Phospho-GSK-3 (Serin-9/-21); assay: Immunohistochemistry: subcellular (endolysosomal) localisation of phospho-GSK-3; type: cell-based, human; settings: 100 µM, versus control medium (Fig. 2)
Procedure: Zur Detektion von […] innerhalb der Tumorzellen wird eine immunohistochemische Methode eingesetzt. Die Zellen werden 24 Stunden vor der Behandlung mit 100 µM Cineol in 4-Well-Kammerobjektträgern (Sarstadt AG, Numbrecht, Deutschland) überführt. Nach der Inkubation wurde das Medium entfernt und die Zellen wurden zweimal in PBS gewaschen. Zur intrazellulären Färbung wurden die Zellen mit 0,1 % Triton-X-100 (Sigma-Aldrich Chemie GmbH, Steinheim) in PBS fixiert. Der spezifische primäre Antikörper Anti-Phospho-GSK-3α/β (Serin-21/-9) (#9331) (Cell Signaling, Danvers, MA, USA) wird mit einem Antikörper-Verdünnungspuffer, welcher Blocking-Puffer (DCS LabLine, DCS, Hamburg, Deutschland) enthält, auf 1 : 50 verdünnt und in einer luftbefeuchteten Kammer für 1 Stunde bei Raumtemperatur (RT) inkubiert. Nach Waschen mit PBS wird der zweite Antikörper Ziege-anti-Maus FITC (Jackson ImmunoResearch Laboratories, West Grove, USA) in einer Verdünnung von 1 : 100 für 45 Minuten inkubiert. Die Zellen werden dreimal mit PBS gespült. Die Zellkerne werden für 1 Minute unter Einsatz von DAPI (1 µg/ml, Roche Diagnostics, Mannheim, Deutschland) gefärbt. Die Proben werden dreimal für 5 Minuten mit PBS gespült und anschließend in Fluoromount G (Southern Biotechnologies Associates, Birmingham, Alabama, USA) eingebettet. […]

[11] = test system: Wnt11; assay: RT2 EMT Profiler PCR array: Wnt11 mRNA level in HNSCC cell lines; type: cell-based, human; settings: 100 µM, HNSCC cell lines (Fig. 4A)
Text: PCR-Test zur humanen epithelial-mesenchymalen Transition (EMT) Mit dem "Human Epithelial to Mesenchymal Transition (EMT) RT^2 Profiler™ PCR Array" wird die Expression von 84 Schlüsselgenen, welche ihre Expression während dieses Prozesses verändern oder die Expression von sich verändernden Genen regulieren, festgestellt. Der Test umfasst für Zelloberflächenrezeptoren, extrazelluläre Matrix und das Zytoskelett kodierende Gene, Gene, welche Zelladhäsion, Migration, Motilität und Morphogenese steuern; sowie Gene für Signaltransduktion und Transkriptionsfaktoren, welche die EMT sowie die damit assoziierten Prozesse bedingen.
Weiterhin werden im Hinblick auf die Wnt/β-Catenin-Signalgebung aufgrund ihrer Involvierung in die Regulation der epithelial-mesenchymalen Transition (EMT) die transkriptionellen Profile verschiedener Gene, welche in Zusammenhang mit EMT stehen, in Reaktion auf 1,8-Cineol untersucht. Dafür wird der PCR-basierte "RT^2 EMT Profiler" eingesetzt, welcher die umfassende Analyse von 84 verschiedenen, in Zusammenhang mit EMT stehenden Genen erlaubt.

[12] = from a concentration of 1mM to 2mM

Q: Which results are given for `CC12CCC(CC1)C(C)(C)O2` [1,8-Cineol, 1,3,3-Trimethyl-2-oxabicyclo[2.2.2]octan]?
A: Level von bzw. Gehalt an phosphoryliertem GSK-3α/β (Serin-9/-21) [1]: verringerten Level von bzw. Gehalt an phosphoryliertem GSK-3α/β (Serin-9/-21); Einfluss auf die Progression und Vitalität von Fibroblasten ([2]; 1 mM to 10 mM): inhibierender Einfluss; zytotoxische Wirkung ([2]; 10mM): deutlich zytotoxische Wirkung; proliferationshemmende Wirkung [2, 12]: starke proliferationshemmende Wirkung; Expressionslevel von aktivem β-Catenin [3]: starke Abnahme von aktivem β-Catenin; Proliferation und zelluläre Lebensfähigkeit von HNSCC-Zellen [4]: stark verringerte zelluläre Lebensfähigkeit; Proliferation und zelluläre Lebensfähigkeit von HNSCC-Zellen ([4]; listed as Cineol): starker Rückgang der Proliferation und zellulären Lebensfähigkeit; Phosphorylierung von Threonin-308 von Akt [5]: Weder die Expression noch die Phosphorylierung von Threonin-308 von Akt wird in den analysierten Zelllinien nennenswert beeinflusst; Proteinexpression von Wnt11 ([6]; cell lines 16A, SCC154, 60B and Carey24, 24 h, 1mM): starke Herunterregulation von Wnt11; Wnt11 Proteinexpression ([6]; cell lines 16B and 60A, 24 h, 1mM): Rückgang der Wnt11 Proteinexpression, auch wenn dieser geringer ist; Proteinexpression von Wnt11 ([6]; dose dependence, six HNSCC cell lines (Fig. 4B)): dosisabhängig in Reaktion auf 1,8-Cineol abnimmt; Expression von Akt [7]: Weder die Expression noch die Phosphorylierung von Threonin-308 von Akt wird in den analysierten Zelllinien nennenswert beeinflusst; Expressionslevel von GSK-3α/β (Tyrosin-279/-216) [8]: nicht nennenswert beeinflusst; Einfluss auf die Progression und Vitalität von HNSCC ([9]; 1 mM to 10 mM): inhibierender Einfluss; zytotoxische Wirkung ([9]; 10mM): deutlich zytotoxische Wirkung; proliferationshemmende Wirkung [9, 12]: starke proliferationshemmende Wirkung; endolysosomale Lokalisation von GSK-3 [10]: Rückgang der endolysosomalen Lokalisation von Phospho-GSK-3 (Serin-9/-21); also recorded: verringerte endolysosomale Lokalisation von GSK-3; mRNA-Level von Wnt11 [11]: starken Rückgang der mRNA-Level von Wnt11
